{
  "source": "ChEMBL document CHEMBL1201862",
  "about": "“PubChem BioAssay data set” (2004)",
  "key": {"[1]": {"molecular_target": "T1, Sentrin-specific protease 8 (Homo sapiens, UniProt Q96LD8)", "T1 sequence (Q96LD8 whole entry)": "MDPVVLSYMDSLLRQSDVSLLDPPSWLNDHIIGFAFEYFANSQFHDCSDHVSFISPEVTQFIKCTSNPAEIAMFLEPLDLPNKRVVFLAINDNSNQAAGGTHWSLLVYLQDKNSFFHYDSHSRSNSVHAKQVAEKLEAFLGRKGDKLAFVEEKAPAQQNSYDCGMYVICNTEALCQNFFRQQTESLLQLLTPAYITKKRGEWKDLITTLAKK", "assay": "inhibition of sentrin protease 8 – biochemical, luminescence, set 2, SAR follow-up (AID 588601)", "assay_type": "functional"}, "[2]": {"molecular_target": "T2, Caspase-3 (Homo sapiens, UniProt P42574)", "T2 sequence (P42574 whole entry)": "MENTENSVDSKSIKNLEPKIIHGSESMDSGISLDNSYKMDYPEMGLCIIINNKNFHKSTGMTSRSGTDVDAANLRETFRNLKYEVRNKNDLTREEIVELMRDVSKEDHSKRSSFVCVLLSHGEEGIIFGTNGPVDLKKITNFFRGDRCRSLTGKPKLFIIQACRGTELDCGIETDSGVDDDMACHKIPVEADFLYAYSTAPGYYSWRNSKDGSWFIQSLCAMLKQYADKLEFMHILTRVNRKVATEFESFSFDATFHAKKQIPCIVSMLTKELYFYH", "assay": "inhibition of recombinant caspase-3 activity – biochemical, luminescence, set 2, selectivity assay for SENP protease inhibitor project, SAR follow-up (AID 588599)", "assay_type": "functional"}, "[3]": {"molecular_target": "T3, Sentrin-specific protease 6 (Homo sapiens, UniProt Q9GZR1)", "T3 sequence (Q9GZR1 whole entry)": "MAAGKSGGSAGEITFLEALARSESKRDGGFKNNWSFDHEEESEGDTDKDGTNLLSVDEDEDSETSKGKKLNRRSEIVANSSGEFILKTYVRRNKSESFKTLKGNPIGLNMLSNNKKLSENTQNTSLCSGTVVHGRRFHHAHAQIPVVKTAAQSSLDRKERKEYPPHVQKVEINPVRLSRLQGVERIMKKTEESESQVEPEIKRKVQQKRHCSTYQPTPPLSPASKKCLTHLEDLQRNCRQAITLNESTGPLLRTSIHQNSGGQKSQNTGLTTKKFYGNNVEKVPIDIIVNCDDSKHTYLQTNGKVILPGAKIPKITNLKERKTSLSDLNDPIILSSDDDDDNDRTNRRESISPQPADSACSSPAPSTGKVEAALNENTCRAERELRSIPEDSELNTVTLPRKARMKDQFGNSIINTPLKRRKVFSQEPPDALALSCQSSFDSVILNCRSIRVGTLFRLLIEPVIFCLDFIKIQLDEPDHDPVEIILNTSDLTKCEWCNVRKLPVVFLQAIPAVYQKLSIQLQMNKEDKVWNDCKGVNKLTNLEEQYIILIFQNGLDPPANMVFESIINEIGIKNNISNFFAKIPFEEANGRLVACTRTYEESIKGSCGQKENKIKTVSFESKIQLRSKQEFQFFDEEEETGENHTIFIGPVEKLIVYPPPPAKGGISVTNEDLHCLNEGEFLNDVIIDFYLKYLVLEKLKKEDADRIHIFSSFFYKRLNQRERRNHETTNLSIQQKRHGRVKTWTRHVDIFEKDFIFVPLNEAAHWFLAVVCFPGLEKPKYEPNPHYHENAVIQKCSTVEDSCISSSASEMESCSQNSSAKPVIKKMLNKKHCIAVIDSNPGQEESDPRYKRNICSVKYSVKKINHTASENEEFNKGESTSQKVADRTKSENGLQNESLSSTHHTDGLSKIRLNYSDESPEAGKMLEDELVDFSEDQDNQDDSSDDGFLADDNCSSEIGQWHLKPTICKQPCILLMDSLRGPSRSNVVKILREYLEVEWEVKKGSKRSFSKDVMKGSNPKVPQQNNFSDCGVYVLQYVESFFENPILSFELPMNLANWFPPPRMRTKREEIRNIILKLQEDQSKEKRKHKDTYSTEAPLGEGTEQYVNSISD", "assay": "inhibition of human SENP6 catalytic domain – biochemical, luminescence, set 2, SAR follow-up (AID 588598)", "assay_type": "functional"}, "[4]": {"molecular_target": "T4, Sentrin-specific protease 7 (Homo sapiens, UniProt Q9BQF6)", "T4 sequence (Q9BQF6 whole entry)": "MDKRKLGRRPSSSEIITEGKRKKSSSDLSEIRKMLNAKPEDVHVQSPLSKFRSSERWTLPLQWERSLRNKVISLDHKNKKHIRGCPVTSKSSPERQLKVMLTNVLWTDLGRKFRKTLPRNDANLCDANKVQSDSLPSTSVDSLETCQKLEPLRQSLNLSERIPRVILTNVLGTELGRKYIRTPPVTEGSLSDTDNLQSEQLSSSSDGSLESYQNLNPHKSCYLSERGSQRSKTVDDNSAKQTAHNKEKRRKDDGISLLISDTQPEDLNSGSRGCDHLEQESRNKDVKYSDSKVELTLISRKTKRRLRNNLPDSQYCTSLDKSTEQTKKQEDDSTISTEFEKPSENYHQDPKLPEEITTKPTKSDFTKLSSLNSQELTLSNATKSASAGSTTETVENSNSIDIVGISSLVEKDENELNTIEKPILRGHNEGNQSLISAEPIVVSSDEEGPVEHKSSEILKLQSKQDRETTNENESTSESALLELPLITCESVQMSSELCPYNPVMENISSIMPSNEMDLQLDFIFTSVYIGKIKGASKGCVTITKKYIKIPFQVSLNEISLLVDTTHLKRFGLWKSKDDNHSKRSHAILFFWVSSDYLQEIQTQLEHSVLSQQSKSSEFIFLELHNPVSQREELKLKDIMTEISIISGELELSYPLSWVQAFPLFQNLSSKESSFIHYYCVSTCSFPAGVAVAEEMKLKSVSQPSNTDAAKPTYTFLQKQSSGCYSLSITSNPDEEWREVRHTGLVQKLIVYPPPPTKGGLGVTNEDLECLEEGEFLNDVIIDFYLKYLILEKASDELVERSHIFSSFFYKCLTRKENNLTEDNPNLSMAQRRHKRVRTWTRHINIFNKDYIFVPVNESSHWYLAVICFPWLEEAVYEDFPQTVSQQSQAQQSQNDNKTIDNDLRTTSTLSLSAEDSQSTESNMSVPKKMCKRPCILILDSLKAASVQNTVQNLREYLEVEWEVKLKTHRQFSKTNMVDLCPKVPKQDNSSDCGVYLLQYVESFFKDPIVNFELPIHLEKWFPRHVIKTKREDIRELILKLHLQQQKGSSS", "assay": "inhibition of human SENP7 cleavage activity – biochemical, luminescence, set 2, SAR follow-up (AID 588600)", "assay_type": "functional"}, "[5]": {"molecular_target": "Phospholipase D1 (Homo sapiens, UniProt Q13393)", "sequence (Q13393 whole entry)": "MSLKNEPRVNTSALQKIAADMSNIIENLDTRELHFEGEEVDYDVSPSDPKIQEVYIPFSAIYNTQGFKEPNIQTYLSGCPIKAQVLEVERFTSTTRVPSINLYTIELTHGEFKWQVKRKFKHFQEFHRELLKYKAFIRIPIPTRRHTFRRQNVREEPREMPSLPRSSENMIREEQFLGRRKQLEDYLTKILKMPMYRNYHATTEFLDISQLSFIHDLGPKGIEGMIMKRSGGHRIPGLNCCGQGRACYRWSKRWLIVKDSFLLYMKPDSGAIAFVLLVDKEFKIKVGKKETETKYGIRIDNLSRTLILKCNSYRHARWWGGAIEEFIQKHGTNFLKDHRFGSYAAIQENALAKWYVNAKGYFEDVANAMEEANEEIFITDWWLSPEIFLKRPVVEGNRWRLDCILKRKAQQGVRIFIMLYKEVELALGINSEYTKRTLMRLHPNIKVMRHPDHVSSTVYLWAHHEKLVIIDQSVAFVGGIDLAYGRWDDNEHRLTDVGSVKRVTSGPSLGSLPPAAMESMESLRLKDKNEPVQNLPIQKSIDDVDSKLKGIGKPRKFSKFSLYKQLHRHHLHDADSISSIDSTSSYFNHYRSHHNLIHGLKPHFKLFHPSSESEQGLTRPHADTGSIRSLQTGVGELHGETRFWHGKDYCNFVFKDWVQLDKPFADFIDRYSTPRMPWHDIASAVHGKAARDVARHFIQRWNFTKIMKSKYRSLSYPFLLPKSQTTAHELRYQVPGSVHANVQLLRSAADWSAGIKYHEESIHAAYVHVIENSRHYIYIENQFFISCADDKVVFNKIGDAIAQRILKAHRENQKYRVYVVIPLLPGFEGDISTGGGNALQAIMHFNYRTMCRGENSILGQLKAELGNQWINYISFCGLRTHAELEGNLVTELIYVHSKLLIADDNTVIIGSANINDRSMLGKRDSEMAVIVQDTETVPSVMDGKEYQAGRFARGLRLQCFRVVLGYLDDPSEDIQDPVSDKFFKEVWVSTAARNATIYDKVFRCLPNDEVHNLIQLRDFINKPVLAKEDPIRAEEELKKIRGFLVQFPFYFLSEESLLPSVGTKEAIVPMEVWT", "assay": "cellular phospholipase D1 inhibition IC50 – cell-based, dose response (AID 602151);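 note: cellular PLD1 assay in Calu-1 cells stimulated with PMA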", "assay_type": "functional"}, "[6]": {"molecular_target": "Phospholipase D2 (Homo sapiens, UniProt O14939)", "sequence (O14939 whole entry)": "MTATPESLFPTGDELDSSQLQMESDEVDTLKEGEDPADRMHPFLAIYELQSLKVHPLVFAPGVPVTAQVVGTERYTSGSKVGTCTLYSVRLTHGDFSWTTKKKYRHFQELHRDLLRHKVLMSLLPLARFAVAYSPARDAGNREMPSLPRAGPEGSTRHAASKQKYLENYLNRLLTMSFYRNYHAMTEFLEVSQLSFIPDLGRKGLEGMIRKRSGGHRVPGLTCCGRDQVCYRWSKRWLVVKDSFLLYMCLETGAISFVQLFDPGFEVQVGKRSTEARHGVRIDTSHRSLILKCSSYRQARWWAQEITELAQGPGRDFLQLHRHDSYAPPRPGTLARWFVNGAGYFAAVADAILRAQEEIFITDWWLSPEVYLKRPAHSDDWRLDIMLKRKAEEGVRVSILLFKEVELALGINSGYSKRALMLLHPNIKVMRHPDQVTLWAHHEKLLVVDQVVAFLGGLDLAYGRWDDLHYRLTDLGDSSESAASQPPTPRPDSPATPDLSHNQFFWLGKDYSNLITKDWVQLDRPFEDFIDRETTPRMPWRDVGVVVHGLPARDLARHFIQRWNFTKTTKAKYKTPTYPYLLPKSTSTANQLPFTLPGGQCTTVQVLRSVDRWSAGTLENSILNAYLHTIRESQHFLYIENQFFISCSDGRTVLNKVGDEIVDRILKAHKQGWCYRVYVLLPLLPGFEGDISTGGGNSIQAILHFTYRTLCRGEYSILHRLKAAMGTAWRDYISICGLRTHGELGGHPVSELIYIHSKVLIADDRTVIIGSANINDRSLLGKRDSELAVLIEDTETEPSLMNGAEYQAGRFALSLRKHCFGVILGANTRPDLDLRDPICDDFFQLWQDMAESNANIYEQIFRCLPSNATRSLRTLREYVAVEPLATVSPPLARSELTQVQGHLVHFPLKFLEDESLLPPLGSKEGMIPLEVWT", "assay": "cellular phospholipase D2 inhibition IC50 – cell-based, dose response (AID 602147);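 note: cellular assay in HEK293 cells overexpressing GFP-tagged PLD2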", "assay_type": "functional"}, "[7]": {"system": "Candida albicans", "assay": "single-agent toxicity toward C. albicans – CaCi-2 strain, no fluconazole, dry powder, set 4, counter-screen for reversing antifungal drug resistance, dose response (AID 488932)", "assay_type": "functional, organism-based"}, "[8]": {"molecular_target": "Protein Wnt-3a (Mus musculus, UniProt P27467)", "sequence (P27467 whole entry)": "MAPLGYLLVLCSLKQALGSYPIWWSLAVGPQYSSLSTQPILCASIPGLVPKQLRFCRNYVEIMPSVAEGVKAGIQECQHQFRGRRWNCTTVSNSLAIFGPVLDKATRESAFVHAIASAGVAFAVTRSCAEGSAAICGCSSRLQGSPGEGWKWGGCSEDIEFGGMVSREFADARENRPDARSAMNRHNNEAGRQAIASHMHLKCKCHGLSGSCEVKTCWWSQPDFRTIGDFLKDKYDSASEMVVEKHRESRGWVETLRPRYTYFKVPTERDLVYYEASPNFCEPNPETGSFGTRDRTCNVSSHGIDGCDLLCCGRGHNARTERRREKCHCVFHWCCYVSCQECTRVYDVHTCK", "assay": "antagonism of Wnt3a pathway luciferase reporter – Wnt-LIGHT cells, luminescence, selectivity assay for Gli-SUFU antagonist project, dose response (AID 651570);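 note: Wnt-LIGHT reporter cells stimulated with conditioned medium from Wnt3a-producing cells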", "assay_type": "functional", "settings": "read-out: IC50_Mean"}, "[9]": {"system": "Candida albicans", "assay": "fluconazole-resistant Candida strain growth inhibitors – CaCi-8 strain, dry powder, set 4, dose response (AID 488950)", "assay_type": "functional, organism-based"}, "[10]": {"system": "HEK293", "assay": "EBV LMP1 TES2 canonical NF-kB signalling blockers – cell-based, HEK293, luciferase, cherry-pick, dose response (AID 588343)", "assay_type": "functional", "settings": "Homo sapiens"}, "[11]": {"system": "Candida albicans", "assay": "C. albicans growth inhibition with fluconazole – CaCi-2 strain, Alamar Blue, dry powder, set 4, dose response (AID 488943)", "assay_type": "functional, organism-based"}, "[12]": {"system": "Candida albicans", "assay": "resistant Candida growth with fluconazole co-treatment – CaCi-8 strain, Alamar Blue, dry powder, set 2, dose response (AID 488909)", "assay_type": "functional, organism-based"}, "[13]": {"system": "Candida albicans", "assay": "Candida growth reduction in fluconazole presence – CaCi-2 strain, Alamar Blue, dry powder, set 2, antifungal resistance reversal project, dose response (AID 488930)", "assay_type": "functional, organism-based"}, "[14]": {"molecular_target": "Latent membrane protein 1 (Human herpesvirus 4 (strain B95-8), UniProt P03230)", "sequence (P03230 whole entry)": "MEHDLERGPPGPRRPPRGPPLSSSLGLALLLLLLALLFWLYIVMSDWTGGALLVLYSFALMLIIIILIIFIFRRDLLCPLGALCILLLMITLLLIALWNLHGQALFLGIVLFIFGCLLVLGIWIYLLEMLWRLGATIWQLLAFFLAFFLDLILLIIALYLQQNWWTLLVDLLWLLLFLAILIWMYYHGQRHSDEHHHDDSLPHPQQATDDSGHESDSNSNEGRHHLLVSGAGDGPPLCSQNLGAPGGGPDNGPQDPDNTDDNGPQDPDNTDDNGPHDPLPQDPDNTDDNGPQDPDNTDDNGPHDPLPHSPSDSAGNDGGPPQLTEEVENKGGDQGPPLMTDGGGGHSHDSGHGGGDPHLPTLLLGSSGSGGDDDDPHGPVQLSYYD", "assay": "LMP1 TES1 pathway selectivity over dsRED control – imaging, HEK293T, dual-color eGFP/dsRED, cherry-picks, selectivity assay for LMP1 NF-kB inhibitor project, dose response (AID 588398)", "assay_type": "functional, cell-based"}, "[15]": {"molecular_target": "Nonstructural protein 1 (Influenza A virus, UniProt Q194T2)", "sequence (Q194T2 whole entry)": "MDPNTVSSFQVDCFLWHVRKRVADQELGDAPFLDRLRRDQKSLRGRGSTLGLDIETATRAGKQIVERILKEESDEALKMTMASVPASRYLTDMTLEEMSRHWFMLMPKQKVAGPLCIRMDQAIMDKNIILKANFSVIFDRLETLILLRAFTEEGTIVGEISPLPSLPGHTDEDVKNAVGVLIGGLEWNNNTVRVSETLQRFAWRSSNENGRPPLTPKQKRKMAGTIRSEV", "assay_type": "functional, Influenza A virus (A/California/07/2009(H1N1))"}},
  "note": "The source made the active and inactive calls.",
  "data": [
    {"smiles": "Cc1ccccc1-c1noc(/C(C#N)=C\\c2ccccc2F)n1", "values": [
      {"measurement": "IC50", "setting": "[1]", "result": "> 99 µM (inactive)"},
      {"measurement": "IC50", "setting": "[2]", "result": "> 99 µM (inactive)"},
      {"measurement": "IC50", "setting": "[3]", "result": "> 99 µM (inactive)"},
      {"measurement": "IC50", "setting": "[4]", "result": "> 99 µM (inactive)"}
    ]},
    {"smiles": "O=C(NCCN1CCC2(CC1)CCN(c1ccccc1)C2=O)c1cnc2ccccc2c1", "values": [
      {"measurement": "IC50", "setting": "[5]", "result": "20 µM (inactive)"},
      {"measurement": "IC50", "setting": "[6]", "result": "20 µM (active)"}
    ]},
    {"smiles": "O=C(C1CCCCC1)N1CCN(c2ccnc3cc(Cl)ccc23)CC1", "values": [
      {"measurement": "AC50", "setting": "[7]", "result": "200 µM (active)"},
      {"measurement": "IC50", "setting": "[8]", "result": "10.4 µM (active)"},
      {"measurement": "AC50", "setting": "[9]", "result": "1.01 µM (active)"},
      {"measurement": "AC50", "setting": "[10]", "result": "12.5 µM (active)"},
      {"measurement": "AC50", "setting": "[11]", "result": "0.688 µM (active)"},
      {"measurement": "AC50", "setting": "[12]", "result": "5.02 µM (active)"},
      {"measurement": "AC50", "setting": "[13]", "result": "0.661 µM (active)"}
    ]},
    {"smiles": "CC(=NNC(=S)Nc1ccc(C)cc1)c1ccccn1", "values": [
      {"measurement": "AC50", "setting": "[14]", "result": "0.793 µM (active)"},
      {"measurement": "IC50", "setting": "[15]", "result": "16.6 µM (active)"},
      {"measurement": "AC50", "setting": "[10]", "result": "0.149 µM (active)"}
    ]}
  ]
}
